# Source: patent US20220273660A1, “MEK INHIBITOR FOR TREATMENT OF STROKE” (EDVINCE AB, priority 2019, published 2022)
# “Also recorded” adds a separate entry of the source.
# Tests used:
# ETB receptor = assay: Intracellular flow cytometry of SMC expressing ETB receptor after SAH; format: in vivo, rat; conditions: i.p. at 6 and 24 h post-SAH
# Procedure: The MCAs, BA and the circle of Willis were pooled from one rat. The VSMCs of the cerebral arteries was isolated by a novel technique advanced by the present inventors based on two other protocols (Navone et al, 2013, Nat Protoc; van Beijnum et al, 2008, Nat Protoc). The tissue were disrupted mechanically (scalpel) and then subjected to enzymatic digestion with highly purified Collagenase I and Collagenase II. Isolated cell suspensions were fixed with 4% paraformaldehyde for 30 minutes, washed with PBS and thereafter permeabilized with 0.25% TritonX-100. Cells were resuspended in blocking buffer containing 5% donkey serum and double-stained overnight at 4° C. with primary goat anti-SM22α (1:100, Abcam) or goat isotope control IgG (5 μg/mL, Abcam) and primary antibody rabbit anti-ETB (1:100, Abcam) or rabbit isotope control IgG (10 μg/mL, Abcam) in the same blocking buffer. […] Finally, cell suspensions were diluted to a final volume of 0.5 mL with PBS before analyzed by fluorescent-activated cell sorting (FACS) on the BD FACSVerse machine (BD Biosciences, USA). Fluorescence was induced with a 640 nm red laser. The ratio of SM22α-positive cells expressing ETB was calculated in each sample. Data was analyzed by the BD FACSuite Software.
# [1] = tested on: rat basilar arteries (contractile ETB receptors); assay: 48 h organ culture of basilar artery, S6c (ETB agonist)-induced contraction in wire myograph; format: cell-based
# Procedure: Rats were sedated with O2/CO2 (30/70%) and sacrificed by decapitation. Brains were gently removed and chilled in a cold oxygenated buffer solution of the following composition: 119 mM NaCl, 4.6 mM KCl, 1.5 mM CaCl2, 1.2 mM MgCl2, 1.2 mM NaH2PO4, 15 mM NaHCO3 and 5.5 mM Glucose; pH 7.4. The basilar artery (BA) was carefully dissected from the brain in a physiological buffer solution followed by either OC (naïve animals) or directly mounted in a wire myograph (arteries from rats which has undergone surgical procedures). Segments were incubated for 48 hours at 37° C. in humidified 5% CO2/O2 in DMEM supplemented with streptomycin and penicillin with inhibitors or vehicle (DMSO). Culture media was changed after 24 hours.
# (§1) For contractility measurements, both incubated BAs (ex vivo) and BAs after surgical procedure (in vivo) were cut into segments and mounted on a pair of metal wires (40 μm) in a myograph bath. The arteries from OC were mounted the same way after 48 hours in media. One wire was attached to a micro-meter screw which allows for fine adjustments of the distance between the wires, controlling the vascular tone.
# The segments were equilibrated in physiological buffer aerated with 95% O2/5% CO2, pH of 7.4, temperature set at 37° C. and the wires were separated for isometric pretension at 2 Nm^−1. The arterial segments were exposed two or three times with 60 mM K^+, by exchanging the buffer with a 60 mM K^+ buffer solution. To maintain equal osmolarity, a proportional amount of Na^+ had been removed from the buffer. An absolute cut-off was set at 2.0 mN K^+max for inclusion of arterial segments from rats that underwent the surgical procedure. Endothelium function was evaluated with the addition of 5-HT (3.10^−7 M) followed by carbachol (10^−5 M). For arteries from the OC the protocol was as followed: first a cumulative concentration-response curve to sarafotoxin 6C (S6c, 10^−14-10^−7 M), followed by a concentration-response curve to endothelin-1 (ET-1, 10^−14-10^−7 M). At peak ET-1 (10^−7 M), the buffer was changed to a Ca^2+-free buffer containing 10^−7 M ET-1 and nimodipine (L-type of voltage dependent Ca^2+ channel entry blocker, 10^−7 M). A concentration-response curve to Ca^2+ (0.0125-3 mM) was then performed. When vasodilation was investigated arteries was precontracted with U46619 (1.10^−7-3.10^−7 M) or K^+ (41 mM) and cumulative concentration-response curves was performed by adding calcitonin gene-related peptide (CGRP, 10^−12-10^−7 M), carbachol (10^−10-10^−5 M) or SNP (10^−11-10^−4 M).
# Contractile responses of each segment were adjusted according to the length of the artery and are expressed as mN/mm (Nm^−1). […] To compare ET-1 sensitivity, arteries were normalized to the percentage of the individual vessel ET-1max. When the artery reached maximum contraction before the last concentration was added, the curves were constrained to the max contraction. The relative log IC50/log EC50 is the concentration corresponding to a response midway between the estimates of the lower and upper plateaus. The Emax is the maximal contraction in the concentration response curve and ET-1max is the maximal contraction to ET-1. All quantitative data is presented as mean±standard error of the mean (SEM), unless otherwise stated.
# [2] = tested on: rat subarachnoid haemorrhage model; assay: Rat SAH model, intraperitoneal treatment, myograph of basilar arteries; format: in vivo; conditions: SAH + i.p. treatment at 6 and 24 hours
# Procedure: as §1
# The segments were equilibrated in physiological buffer aerated with 95% O2/5% CO2, pH of 7.4, temperature set at 37° C. and the wires were separated for isometric pretension at 2 Nm^−1. The arterial segments were exposed two or three times with 60 mM K^+, by exchanging the buffer with a 60 mM K^+ buffer solution. To maintain equal osmolarity, a proportional amount of Na^+ had been removed from the buffer. An absolute cut-off was set at 2.0 mN K^+max for inclusion of arterial segments from rats that underwent the surgical procedure. Endothelium function was evaluated with the addition of 5-HT (3.10^−7 M) followed by carbachol (10^−5 M). For arteries from the OC the protocol was as followed: first a cumulative concentration-response curve to sarafotoxin 6C (S6c, 10^−14-10^−7 M), followed by a concentration-response curve to endothelin-1 (ET-1, 10^−14-10^−7 M). […]
# [3] = tested on: rat subarachnoid hemorrhage model; assay: In vivo SAH, intraperitoneal trametinib, ET-1 concentration-response in BAs (Example 11)
# Procedure: Thirty-two rats were operated for this study. Animals were treated intraperitoneally with 250 μl/body weight of a 1 mM solution of trametinib (Selleckchem), yielding a final dose of 95 μg/body weight, diluted in 10% cremophor and 10% PEG400 in NaCl. Animals in the vehicle and sham group were treated with 250 μl/body weight 10% cremophor and 10% PEG400 in NaCl. Treatment was intraperitoneally administered either at 1 h and 24 h or 6 h and 24 h post surgery. Animals were terminated 48 h after surgery by CO2 anesthesia and decapitation.
compound,measurement,setting,value
CC(=O)Nc1cccc(-n2c(=O)n(C3CC3)c(=O)c3c(Nc4ccc(I)cc4F)n(C)c(=O)c(C)c32)c1 [trametinib],increased ETB receptor protein expression in SMC,ETB receptor,not significant abolished
same,inhibition of S6c-induced contraction (initial screening groups),"[1]; 1 μM inhibitor, 48 h organ culture, S6c contraction relative to 60 mM K+",Highly effective; also recorded: almost completely inhibited
same,IC50,"[1]; Rattus norvegicus, 48 h organ culture, inhibition of S6c-induced contraction, read-out: pIC50 (based on the Emax for S6c) (converted)",20.9 nM
same,estimated inhibitor effect in the ex vivo OC study,[1]; at predicted CSF concentration of approximately 10^-7 M,~75%
same,ET-1 contractility (at 10^-9.5 M) vs SAH+i.p. vehicle,[2],significant decrease in contractility
same,contractile response of BAs to 60 mM K+,[2],3.03±0.19 Nm-1
same,increased ET-1-induced concentration-response curve in BAs after SAH,[3]; i.p. 1 mM at 1 and 24 h post-SAH,significantly inhibited
same,increased ET-1-induced concentration-response curve in BAs after SAH,[3]; i.p. 1 mM at 6 and 24 h post-SAH,significantly inhibited
